Laboratory results as given in US20250353831A1, “NOVEL HETEROBICYCLIC COMPOUND FOR INHIBITING YAP-TEAD INTERACTION AND PHARMACEUTICAL COMPOSITION COMPRISING SAME” (priority 2022, published 2025).

What was measured:
TEAD = TEAD reporter activity inhibition test (luciferase reporter in MCF7 cell line); assay type: cell-based; conditions: Homo sapiens; MCF7 TEAD (GTIIC) firefly luciferase reporter cell line, 24 hours, ONE-Glo luminescence; read-out: IC50 on TEAD transcription activity
Procedure: The ability of the synthetic compounds to inhibit transcription of a target gene by TEAD was measured. This evaluation method was a method of measuring transcriptional activity of TEAD by measuring luminescence intensity of luciferase expressed in the case where TEAD binds to a target gene and activates transcription thereof, by using MCF7 cell line (BPS Bioscienc, Inc., USA) constructed by introducing firefly luciferase reporter gene into GTIIC (5′-ACATTCCA-3′), which is a specific binding structure of TEAD. The cell line was cultured in a MEM medium supplemented with 10% FBS, 1% Penicillin/Streptomycin, 1% non-essential amino acids, 10 μg/ml insulin, and 400 μg/ml Geneticin. In the test of inhibiting the TEAD reporter activity, Geneticin was excluded. The cells were aliquoted into a white 96-well plate at a density of 4×10^4 cells/100 μl and cultured for 6 hours. 50 μl of the test compound diluted to 3× concentration was mixed with each well. After culturing the cell line for 24 hours, signals of luciferase were measured by luminescence according to manufacturer's protocols by using ONE-Glo luciferase assay system (Promega, E6120). A 50% inhibitory concentration (IC50) on TEAD transcription activity was calculated by using GraphPad Prism 9.
An IC50 value less than 100 nM was expressed as A, an IC50 value not less than 100 nM but less than 500 nM was expressed as B, and an IC50 value not less than 500 nM was expressed as C.

NCI-H226 cells = assay: Cell growth inhibition test (SRB) in NCI-H226 cells; assay type: cell-based; conditions: Homo sapiens, 144 h, NCI-H226 NF2 gene-deficient mesothelioma cancer cell line, 6 days
Procedure: The ability of the synthetic compounds to inhibit the growth of NCI-H226 cells was identified. NCI-H226, which is an NF2 gene-deficient mesothelioma cancer cell line, was cultured in a RPMI 1640 medium supplemented with 10% FBS and 1% Penicillin/Streptomycin. The cultured cells were aliquoted into a 96-well plate at a density of 0.7×10^3 cells/100 μl and cultured for 24 hours, and then 100 μl of a test compound diluted to 2× concentration was mixed with each well and cultured for 6 days. SRB test method was used to measure cell growth inhibition, and a 50% inhibitory concentration (GI50) on cell growth by the compound was calculated by using GraphPad Prism 9.
A GI50value less than 100 nM was expressed as A and a GI50 value not less than 100 nM was expressed as B.

Row | SMILES | IC50 (TEAD) [µM] | GI50 (NCI-H226 cells) [µM]
1 | C=CC(=O)Nc1ccc2c(c1)c(-c1cn(C3CC3)cn1)cn2-c1ccc(C(F)(F)F)cc1 [Synthetic compound 2, N-(3-(1-cyclopropyl-1H-imidazol-4-yl)-1-(4-(trifluoromethyl)phenyl)-1H-indol-5-yl) acrylamide] | < 0.1 | < 0.1
2 | C=CC(=O)Nc1ccc2c(c1)c(-c1ccco1)cn2-c1ccc(C(F)(F)F)cc1 [Synthetic compound 3, N-(3-(furan-2-yl)-1-(4-(trifluoromethyl)phenyl)-1H-indol-5-yl)acrylamide] | < 0.1 | < 0.1
3 | C=CC(=O)Nc1ccc2c(c1)c(-c1cn(C3CCC3)cn1)cn2-c1ccc(C(F)(F)F)cc1 [Synthetic compound 4, N-(3-(1-cyclobutyl-1H-imidazol-4-yl)-1-(4-(trifluoromethyl)phenyl)-1H-indol-5-yl)acrylamide] | < 0.1 | < 0.1
4 | C=CC(=O)Nc1ccc2c(c1)c(-c1ccccc1F)cn2-c1ccc(C(F)(F)F)cc1 [Synthetic compound 5, N-(3-(2-fluorophenyl)-1-(4-(trifluoromethyl)phenyl)-1H-indol-5-yl)acrylamide] | < 0.1 | < 0.1

The remaining lines, values ahead:

Row | IC50 (TEAD) [µM] | GI50 (NCI-H226 cells) [µM] | SMILES
5 | 0.1 to 0.5 |  | C=C(F)C(=O)Nc1ccc2c(c1)c(-c1cn(C)cn1)cn2-c1ccc(C(F)(F)F)cc1 [Synthetic compound 6, 2-fluoro-N-(3-(1-methyl-1H-imidazol-4-yl)-1-(4-(trifluoromethyl)phenyl)-1H-indol-5-yl) acrylamide]
6 | < 0.1 | < 0.1 | C=CC(=O)Nc1ccc2c(c1)c(-c1cn(CCOC)cn1)cn2-c1ccc(C(F)(F)F)cc1 [Synthetic compound 7, N-(3-(1-(2-methoxyethyl)-1H-imidazol-4-yl)-1-(4-(trifluoromethyl)phenyl)-1H-indol-5-yl)acrylamide]
7 | < 0.1 | < 0.1 | C=CC(=O)Nc1cnc2c(c1)c(-c1cn(C3CC3)cn1)cn2-c1ccc(C(F)(F)F)cc1 [Synthetic compound 8, N-(3-(1-cyclopropyl-1H-imidazol-4-yl)-1-(4-(trifluoromethyl)phenyl)-1H-pyrrolo[2,3-b]pyridin-5-yl)acrylamide]
8 | < 0.1 | < 0.1 | C=CC(=O)Nc1ccc2c(c1)c(-c1cn(C)cn1)cn2-c1ccc(C(F)(F)F)cc1 [Synthetic compound 9, N-(3-(1-methyl-1H-imidazol-4-yl)-1-(4-(trifluoromethyl)phenyl)-1pyrrolo[2,3-b]pyridin-5-yl)acrylamide]
9 | 0.1 to 0.5 |  | C=CC(=O)Nc1cc2c(-c3cn(C)cn3)cn(-c3ccc(C(F)(F)F)cc3)c2cc1Cl [Synthetic compound 10, N-(6-chloro-3-(1-methyl-1H-imidazol-4-yl)-1-(4-(trifluoromethyl)phenyl)-1H-indol-5-yl)acrylamide]
